Like-named read-outs stand apart in the source and are kept apart here.
Target: T1, BRM (Homo sapiens, UniProt P51531)
T1 construct: In-Cell Western Screen of BRM Degradation in SW1573 Cells; endogenous in cells; host or cells: SW1573
Assay: In-cell Western screen of BRM degradation in SW1573 cells (Dmax and DC50)
Format: cell-based
In short: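 Adherent SW1573 cultures exposed to test compounds for 18-20 h were processed for in-cell Western after PFA fixation and detergent permeabilization. BRM degradation was reported as Dmax and DC50.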

[1] = BRM degradation, SW1573 cells, read-out: DC50
[2] = BRM degradation, SW1573 cells, Table 2D, read-out: **Dmax (%) (% degraded)
[3] = BRM degradation, SW1573 cells, Table 2D, read-out: *DC50
[4] = SW1573, % degraded, when tested at the top concentration of between 0.3 and 10 μM, read-out: BRM Dmax (%)
[5] = BRM degradation, SW1573 cells, tested at the top concentration of between 0.3 and 10 μM, read-out: Dmax (%) (% degraded)
[6] = target protein degradation, read-out: BRM DC50

T1 sequence (P51531 whole entry): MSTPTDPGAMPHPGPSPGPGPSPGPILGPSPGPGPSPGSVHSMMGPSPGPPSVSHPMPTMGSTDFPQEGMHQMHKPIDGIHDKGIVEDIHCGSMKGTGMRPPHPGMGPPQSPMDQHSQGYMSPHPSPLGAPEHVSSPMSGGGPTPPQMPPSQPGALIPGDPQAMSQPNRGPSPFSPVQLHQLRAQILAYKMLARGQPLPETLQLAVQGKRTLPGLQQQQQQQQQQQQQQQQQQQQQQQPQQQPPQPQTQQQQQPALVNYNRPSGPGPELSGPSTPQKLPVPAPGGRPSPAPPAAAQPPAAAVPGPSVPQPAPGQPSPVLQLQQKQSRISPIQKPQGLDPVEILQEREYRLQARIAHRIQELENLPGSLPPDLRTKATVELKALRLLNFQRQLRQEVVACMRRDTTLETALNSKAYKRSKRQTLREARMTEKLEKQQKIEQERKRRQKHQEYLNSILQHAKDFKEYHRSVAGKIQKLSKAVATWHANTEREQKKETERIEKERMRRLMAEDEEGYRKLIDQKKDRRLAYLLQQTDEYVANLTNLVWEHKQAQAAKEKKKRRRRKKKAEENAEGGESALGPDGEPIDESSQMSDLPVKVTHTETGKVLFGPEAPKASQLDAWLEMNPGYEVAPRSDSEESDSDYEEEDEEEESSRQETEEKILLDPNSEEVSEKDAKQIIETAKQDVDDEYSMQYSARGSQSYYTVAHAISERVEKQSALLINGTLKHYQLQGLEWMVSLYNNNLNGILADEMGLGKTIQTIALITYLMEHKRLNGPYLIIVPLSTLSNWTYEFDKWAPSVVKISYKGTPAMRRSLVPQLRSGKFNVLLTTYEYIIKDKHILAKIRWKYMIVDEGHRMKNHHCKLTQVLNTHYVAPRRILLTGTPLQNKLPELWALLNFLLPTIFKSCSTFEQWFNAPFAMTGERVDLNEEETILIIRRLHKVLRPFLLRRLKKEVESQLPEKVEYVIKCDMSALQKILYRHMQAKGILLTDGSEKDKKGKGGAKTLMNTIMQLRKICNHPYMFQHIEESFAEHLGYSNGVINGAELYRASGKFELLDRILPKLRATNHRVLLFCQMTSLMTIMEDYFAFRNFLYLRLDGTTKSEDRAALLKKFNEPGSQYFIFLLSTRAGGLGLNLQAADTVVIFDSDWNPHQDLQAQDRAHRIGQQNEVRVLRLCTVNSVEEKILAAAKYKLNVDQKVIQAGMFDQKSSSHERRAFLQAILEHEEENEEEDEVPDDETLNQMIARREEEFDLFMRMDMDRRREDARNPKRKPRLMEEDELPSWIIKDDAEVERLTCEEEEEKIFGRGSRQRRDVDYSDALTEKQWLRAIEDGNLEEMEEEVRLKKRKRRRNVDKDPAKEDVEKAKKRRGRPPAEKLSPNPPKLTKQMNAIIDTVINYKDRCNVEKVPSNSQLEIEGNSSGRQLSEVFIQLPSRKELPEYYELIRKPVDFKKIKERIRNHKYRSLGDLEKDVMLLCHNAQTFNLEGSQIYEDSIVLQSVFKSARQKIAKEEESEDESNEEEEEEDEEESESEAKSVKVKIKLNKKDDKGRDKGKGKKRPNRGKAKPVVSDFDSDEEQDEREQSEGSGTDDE

| Structure (SMILES) | DC50 [1] | Dmax [2] | DC50 [3] | other results |
| --- | --- | --- | --- | --- |
| Cc1ncsc1-c1ccc([C@H](C)NC(=O)[C@@H]2C[C@@H](O)CN2C(=O)[C@H](c2cc(N3CCC4(CC3)CC(CN3CCC(O[C@H]5C[C@H](Oc6cc(N7C8CCC7CN(c7cc(-c9ccccc9O)nnc7N)C8)ccn6)C5)CC3)C4)no2)C(C)C)cc1 [compound 649, (2S,4R)-1-((2S)-2-(3-(2-((4-((1r,3r)-3-((4-(3-(3-amino-6-(2-hydroxyphenyl)pyridazin-4-yl)-3,8-diazabicyclo[3.2.1]octan-8-yl)pyridin-2-yl)oxy)cyclobutoxy)piperidin-1-yl)methyl)-7-azaspiro[3.5]nonan-7-yl)isoxazol-5-yl)-3-methylbutanoyl)-4-hydroxy-N-((S)-1-(4-(4-methylthiazol-5-yl)phenyl)ethyl)pyrrolidine-2-carboxamide] | > 30 nM |  |  |  |
| Cc1ncsc1-c1ccc([C@@H](NC(=O)[C@@H]2C[C@@H](O)CN2C(=O)[C@H](c2cc(N3CCC(CN4CCC(O[C@H]5C[C@H](Oc6cc(N7C8CCC7CN(c7cc(-c9ccccc9O)nnc7N)C8)ccn6)C5)CC4)CC3)no2)C(C)C)C(=O)N(C)C2CCC2)cc1 [compound 612, (2S,4R)-1-((2R)-2-(3-(4-((4-((1r,3r)-3-((4-(3-(3-amino-6-(2-hydroxyphenyl)pyridazin-4-yl)-3,8-diazabicyclo[3.2.1]octan-8-yl)pyridin-2-yl)oxy)cyclobutoxy)piperidin-1-yl)methyl)piperidin-1-yl)isoxazol-5-yl)-3-methylbutanoyl)-N-((R)-2-(cyclobutyl(methyl)amino)-1-(4-(4-methylthiazol-5-yl)phenyl)-2-oxoethyl)-4-hydroxypyrrolidine-2-carboxamide] |  | > 75% | < 2.5 nM |  |
| Cc1ncsc1-c1ccc([C@H](C)NC(=O)[C@@H]2C[C@@H](O)CN2C(=O)[C@@H](c2cc(N3CCC(CN4CCC([C@@H](C)n5cc(-c6cc(-c7ccccc7O)nnc6N)cn5)CC4)CC3)no2)C(C)C)cc1 (single isomer, unassigned) [compound 574] |  | > 75% | < 2.5 nM |  |
| Cc1ncsc1-c1ccc([C@H](C)NC(=O)[C@@H]2C[C@@H](O)CN2C(=O)[C@@H](c2cc(OCCOCCOCCCCN3CCC4(CCN(c5cc(-c6ccccc6O)nnc5N)CC4)C3)no2)C(C)C)cc1 [compound 74, (2S,4R)-1-((R)-2-(3-(2-(2-(4-(8-(3-amino-6-(2-hydroxyphenyl)pyridazin-4-yl)-2,8-diazaspiro[4.5]decan-2-yl)butoxy)ethoxy)ethoxy)isoxazol-5-yl)-3-methylbutanoyl)-4-hydroxy-N-((S)-1-(4-(4-methylthiazol-5-yl)phenyl)ethyl)pyrrolidine-2-carboxamide] | 10 to 30 nM |  |  | Dmax (BRM degradation, SW1573 cells, when tested at the top concentration of between 0.3 and 10 μM, read-out: Dmax (%) (% degraded)): > 75% |
| Cc1ncsc1-c1ncc([C@H](C)NC(=O)[C@@H]2C[C@@H](O)CN2C(=O)[C@@H](c2cc(OCCN3CCC(O[C@H]4C[C@H](Oc5cc(N6C7CCC6CN(c6cc(-c8ccccc8O)nnc6N)C7)ccn5)C4)CC3)no2)C(C)C)cn1 [compound 430, (2S,4R)-1-((2R)-2-(3-(2-(4-((1r,3R)-3-((4-(3-(3-amino-6-(2-hydroxyphenyl)pyridazin-4-yl)-3,8-diazabicyclo[3.2.1]octan-8-yl)pyridin-2-yl)oxy)cyclobutoxy)piperidin-1-yl)ethoxy)isoxazol-5-yl)-3-methylbutanoyl)-4-hydroxy-N-((S)-1-(2-(4-methylthiazol-5-yl)pyrimidin-5-yl)ethyl)pyrrolidine-2-carboxamide] |  |  |  | Dmax [4]: > 75%; DC50 (degradation of BRM, read-out: BRM DC50): 2.5 to 10 nM |
| CC[C@H](NC(=O)[C@@H]1C[C@@H](O)CN1C(=O)C(c1cc(OCCN2CCC(O[C@H]3C[C@H](Oc4cc(N5C6CCC5CN(c5cc(-c7ccccc7O)nnc5N)C6)ccn4)C3)CC2)no1)C(C)C)c1ccc(-c2scnc2C)cc1 (stereo partly drawn) [compound 351, (2S,4R)-1-((2R)-2-(3-(2-(4-((1r,3R)-3-((4-(3-(3-amino-6-(2-hydroxyphenyl)pyridazin-4-yl)-3,8-diazabicyclo[3.2.1]octan-8-yl)pyridin-2-yl)oxy)cyclobutoxy)piperidin-1-yl)ethoxy)isoxazol-5-yl)-3-methylbutanoyl)-4-hydroxy-N-((S)-1-(4-(4-methylthiazol-5-yl)phenyl)propyl)pyrrolidine-2-carboxamide] | < 2.5 nM |  |  | Dmax [5]: > 75% |
| Cc1ncoc1-c1ccc([C@H](C)NC(=O)[C@@H]2C[C@@H](O)CN2C(=O)[C@H](c2cc(OCCN3CCC(O[C@H]4C[C@H](Oc5cc(N6C7CCC6CN(c6cc(-c8ccccc8O)nnc6N)C7)ccn5)C4)CC3)no2)C(C)C)cc1 [compound 212, (2S,4R)-1-((2S)-2-(3-(2-(4-((1r,3S)-3-((4-(3-(3-amino-6-(2-hydroxyphenyl)pyridazin-4-yl)-3,8-diazabicyclo[3.2.1]octan-8-yl)pyridin-2-yl)oxy)cyclobutoxy)piperidin-1-yl)ethoxy)isoxazol-5-yl)-3-methylbutanoyl)-4-hydroxy-N-((S)-1-(4-(4-methyloxazol-5-yl)phenyl)ethyl)pyrrolidine-2-carboxamide] | > 30 nM |  |  | Dmax [5]: > 75% |
| Cc1ncsc1-c1ccc([C@H](C)NC(=O)[C@@H]2C[C@@H](O)CN2C(=O)[C@@H](c2cc(N3CCC(OC4CCN(C[C@H]5C[C@H](Oc6cc(N7C8CCC7CN(c7cc(-c9ccccc9O)nnc7N)C8)ccn6)C5)CC4)CC3)no2)C(C)C)cn1 [compound 476, (2S,4R)-1-((2R)-2-(3-(4-((1-(((1r,3r)-3-((4-(3-(3-amino-6-(2-hydroxyphenyl)pyridazin-4-yl)-3,8-diazabicyclo[3.2.1]octan-8-yl)pyridin-2-yl)oxy)cyclobutyl)methyl)piperidin-4-yl)oxy)piperidin-1-yl)isoxazol-5-yl)-3-methylbutanoyl)-4-hydroxy-N-((S)-1-(6-(4-methylthiazol-5-yl)pyridin-3-yl)ethyl)pyrrolidine-2-carboxamide] |  |  |  | Dmax [4]: > 75%; DC50 [6]: < 2.5 nM |
| CNC(=O)CCC[C@H](NC(=O)[C@@H]1C[C@@H](O)CN1C(=O)[C@@H](c1cc(OCCN2CCC(O[C@H]3C[C@H](Oc4cc(N5C6CCC5CN(c5cc(-c7ccccc7O)nnc5N)C6)ccn4)C3)CC2)no1)C(C)C)c1ccc(-c2scnc2C)cc1 [compound 570, (2S,4R)-1-((2R)-2-(3-(2-(4-((1r,3R)-3-((4-(3-(3-amino-6-(2-hydroxyphenyl)pyridazin-4-yl)-3,8-diazabicyclo[3.2.1]octan-8-yl)pyridin-2-yl)oxy)cyclobutoxy)piperidin-1-yl)ethoxy)isoxazol-5-yl)-3-methylbutanoyl)-4-hydroxy-N-((S)-5-(methylamino)-1-(4-(4-methylthiazol-5-yl)phenyl)-5-oxopentyl)pyrrolidine-2-carboxamide] |  | > 75% | < 2.5 nM |  |
| Cc1nccn1-c1ccc([C@H](C)NC(=O)[C@@H]2C[C@@H](O)CN2C(=O)[C@@H](c2cc(OCCN3CCN(CCOc4cc(N5C6CCC5CN(c5cc(-c7ccccc7O)nnc5N)C6)ccn4)C[C@@H]3C)no2)C(C)C)cc1 [compound 553, (2S,4R)-1-((2R)-2-(3-(2-((2S)-4-(2-((4-(3-(3-amino-6-(2-hydroxyphenyl)pyridazin-4-yl)-3,8-diazabicyclo[3.2.1]octan-8-yl)pyridin-2-yl)oxy)ethyl)-2-methylpiperazin-1-yl)ethoxy)isoxazol-5-yl)-3-methylbutanoyl)-4-hydroxy-N-((S)-1-(4-(2-methyl-1H-imidazol-1-yl)phenyl)ethyl) pyrrolidine-2-carboxamide] |  | > 75% | < 2.5 nM |  |
| Cc1ncsc1-c1ccc([C@H](C)NC(=O)[C@@H]2C[C@@H](O)CN2C(=O)[C@@H](c2cc(N3CCC(OC4CCN(C[C@H]5C[C@H](Oc6cc(N7C8CCC7CN(c7cc(-c9ccccc9O)nnc7N)C8)ccn6)C5)CC4)CC3)no2)C(C)C)cc1 [compound 474, (2S,4R)-1-((2R)-2-(3-(4-((1-(((1r,3r)-3-((4-(3-(3-amino-6-(2-hydroxyphenyl)pyridazin-4-yl)-3,8-diazabicyclo[3.2.1]octan-8-yl)pyridin-2-yl)oxy)cyclobutyl)methyl)piperidin-4-yl)oxy)piperidin-1-yl)isoxazol-5-yl)-3-methylbutanoyl)-4-hydroxy-N-((S)-1-(4-(4-methylthiazol-5-yl)phenyl)ethyl)pyrrolidine-2-carboxamide] |  |  |  | Dmax [4]: > 75%; DC50 [6]: < 2.5 nM |
| Cc1ncsc1-c1ccc([C@H](C)NC(=O)[C@@H]2C[C@@H](O)CN2C(=O)[C@H](c2cc(OCCN3CCN(CCC#CCn4cc(-c5cc(-c6ccccc6O)nnc5N)cn4)CC3)no2)C(C)C)cn1 [compound 197, (2S,4R)-1-((S)-2-(3-(2-(4-(5-(4-(3-amino-6-(2-hydroxyphenyl)pyridazin-4-yl)-1H-pyrazol-1-yl)pent-3-yn-1-yl)piperazin-1-yl)ethoxy)isoxazol-5-yl)-3-methylbutanoyl)-4-hydroxy-N-((S)-1-(6-(4-methylthiazol-5-yl)pyridin-3-yl)ethyl)pyrrolidine-2-carboxamide] | > 30 nM |  |  |  |
| Cc1ncsc1-c1ccc(CNC(=O)[C@@H]2C[C@@H](O)CN2C(=O)[C@H](c2cc(OCCN3CCC(O[C@H]4C[C@H](Oc5cc(N6C7CCC6CN(c6cc(-c8ccccc8O)nnc6N)C7)ccn5)C4)CC3)no2)C(C)C)c(C#N)c1 [compound 224, (2S,4R)-1-((2S)-2-(3-(2-(4-((1r,3S)-3-((4-(3-(3-amino-6-(2-hydroxyphenyl)pyridazin-4-yl)-3,8-diazabicyclo[3.2.1]octan-8-yl)pyridin-2-yl)oxy)cyclobutoxy)piperidin-1-yl)ethoxy)isoxazol-5-yl)-3-methylbutanoyl)-N-(2-cyano-4-(4-methylthiazol-5-yl)benzyl)-4-hydroxypyrrolidine-2-carboxamide] | > 30 nM |  |  |  |
